# Test results from patent publication US20250114356A1, “INDAZOLE BASED COMPOUNDS AND ASSOCIATED METHODS OF USE” (Arvinas Operations, Inc., priority 2020, published 2025).
# Key:
# wildtype LRRK2 = biological target: T1, wildtype LRRK2 (Homo sapiens, UniProt Q5S007); test: LRRK2 degradation assay, wildtype LRRK2-HiBit expressed from plasmid in HEK293 cells; assay type: cell-based; conditions: HEK293 cells transfected with HiBit-tagged wildtype LRRK2, 24 hours compound incubation; for Dmax: read-out: **WT Dmax (%); for DC50: read-out: *WT DC50
# T1 construct: expressed in transfected cells; host or cells: HEK293 (ATCC CRL-1573), transient transfection, ubiquitin promoter
# Protocol: (§1) The assay measures the degradation of wildtype and G2019S LRRK2 tagged with a HiBit tag on the C-terminus of the protein that was expressed from a mammalian expression vector, driven by the ubiquitin promoter in HEK293 cells. Each compound dose-response was repeated on two separate days, on three separate plates each day.
# (§2) Plasmid Preparation. Transfection mixes were assembled as follows and incubated for 30 minutes at room temperature. In a 15 mL tube, 5.25 mL Opti-MEM (no additions) was mixed with 17 μL Firefly Luciferase plasmid at 1 μg/μL and 158 μL WT plasmid DNA at 1 μg/μL (175 μg total DNA) were mixed by flicking. In a new 15 mL tube, 5.25 mL OptiMEM was mixed with 17 μL Firefly Luciferase plasmid at 1 μg/μL and 158 μL G2019S plasmid DNA at 1 μg/μL (175 μg total DNA) were mixed by flicking. X-tremeGene HP was mixed thoroughly using a vortex. Next, 175 μL was added to each tube and flicked to mix. Both tubes were left to incubate for 30 minutes at room temperature.
# (§3) While the transfection mixes were incubating, HEK293 cells (acquired from ATCC; ATCC CRL-1573) were harvested with trypsin. Once cells are detached, the cells were resuspended in 12 mL OptiMEM+5% FBS and transferred to a 50 mL tube. The cells were mixed well and counted. Using OptiMEM+5% FBS, the cells were diluted in two 250 mL conical tubes at 0.71×10^6 cells/mL in 70 mL. One tube was labeled “WT” and the other “G2019S”. The WT and G2019S transfection mixes were added dropwise to the corresponding 250 mL tubes. The tubes were mixed first by pipetting then by swirling. The tubes were incubated at room temperature for at least 5 minutes.
# (§4) Each tube was swirled before dispensing and after every three plates. Seventy microliters of cells were dispensed with WT or G2019S DNA to seven plates each. Three plates of each were tested with compound plate one (preparation described below) and three plates of each were tested with compound plate two (preparation described below). The first plate from each set served as a “prime” plate and was not used to test compounds. Each plate was incubated in the hood for 10 minutes before placing in the 37° C. incubator for 24 hours.
# (§5) Preparation of Compound and Assay Plates. Two compound plates were made using 96 well polypropylene plates. Compounds were made up at 10 mM and were diluted to 1 mM in 30 μL. Each dose response curve included a well of DMSO, as a negative control and for normalization, and a well of 0.5 μM of Exemplary Compound 4 as a positive control. In addition to seven test compounds, each plate also included a dose response of Exemplary Compound 4. The compound plates were spun down along at 1200 rpm for 2 minutes.
# (§6) The two compound plates were then mixed and 2 μL was diluted in intermediate plates having 248 μL of Opti-Mem in each well. Next, 10 μL diluted compounds from the intermediate plates were added to each test plate (three WT and three G2019S plates per compound plate for a total of 12 assay plates). The plates were incubated for 24 hours at 37° C.
# (§7) All assay plates and all Nano-Glo Dual-Luciferase Reporter Assay System components (except for the DLR substrate) were equilibrated to room temperature. Next, the luciferase buffer was mixed with the lyophilized amber bottle until fully dissolved, and 75 μL of the luciferase mixture was added to each well of each assay plate. The assay plates were incubated for 10 minutes at room temperature with shaking for at least 5 minutes, and then read on a plate reader.
# (§8) Developing Plates and Analyzing Data. One milliliter of DLR substrate and 1 mL LgBiT Protein were added to the Stop and Glo buffer, and 75 μL of the mixture was added to each well of each plate. Optically clear seals were added to each plate and each plate was incubated for 20 minutes with shaking for at least 10 minutes, and then read on a plate reader. […]
# G2019S LRRK2 = biological target: T2, G2019S LRRK2 (Homo sapiens, UniProt Q5S007, G2019S); test: LRRK2 degradation assay, G2019S LRRK2-HiBit expressed from plasmid in HEK293 cells; assay type: cell-based; conditions: HEK293 cells transfected with HiBit-tagged G2019S LRRK2, 24 hours compound incubation
# T2 construct: expressed in transfected cells; host or cells: HEK293 (ATCC CRL-1573), transient transfection, ubiquitin promoter
# Protocol: as §1, §2, §3, §4, §5, §6, §7, §8
# T1 sequence (Q5S007 whole entry): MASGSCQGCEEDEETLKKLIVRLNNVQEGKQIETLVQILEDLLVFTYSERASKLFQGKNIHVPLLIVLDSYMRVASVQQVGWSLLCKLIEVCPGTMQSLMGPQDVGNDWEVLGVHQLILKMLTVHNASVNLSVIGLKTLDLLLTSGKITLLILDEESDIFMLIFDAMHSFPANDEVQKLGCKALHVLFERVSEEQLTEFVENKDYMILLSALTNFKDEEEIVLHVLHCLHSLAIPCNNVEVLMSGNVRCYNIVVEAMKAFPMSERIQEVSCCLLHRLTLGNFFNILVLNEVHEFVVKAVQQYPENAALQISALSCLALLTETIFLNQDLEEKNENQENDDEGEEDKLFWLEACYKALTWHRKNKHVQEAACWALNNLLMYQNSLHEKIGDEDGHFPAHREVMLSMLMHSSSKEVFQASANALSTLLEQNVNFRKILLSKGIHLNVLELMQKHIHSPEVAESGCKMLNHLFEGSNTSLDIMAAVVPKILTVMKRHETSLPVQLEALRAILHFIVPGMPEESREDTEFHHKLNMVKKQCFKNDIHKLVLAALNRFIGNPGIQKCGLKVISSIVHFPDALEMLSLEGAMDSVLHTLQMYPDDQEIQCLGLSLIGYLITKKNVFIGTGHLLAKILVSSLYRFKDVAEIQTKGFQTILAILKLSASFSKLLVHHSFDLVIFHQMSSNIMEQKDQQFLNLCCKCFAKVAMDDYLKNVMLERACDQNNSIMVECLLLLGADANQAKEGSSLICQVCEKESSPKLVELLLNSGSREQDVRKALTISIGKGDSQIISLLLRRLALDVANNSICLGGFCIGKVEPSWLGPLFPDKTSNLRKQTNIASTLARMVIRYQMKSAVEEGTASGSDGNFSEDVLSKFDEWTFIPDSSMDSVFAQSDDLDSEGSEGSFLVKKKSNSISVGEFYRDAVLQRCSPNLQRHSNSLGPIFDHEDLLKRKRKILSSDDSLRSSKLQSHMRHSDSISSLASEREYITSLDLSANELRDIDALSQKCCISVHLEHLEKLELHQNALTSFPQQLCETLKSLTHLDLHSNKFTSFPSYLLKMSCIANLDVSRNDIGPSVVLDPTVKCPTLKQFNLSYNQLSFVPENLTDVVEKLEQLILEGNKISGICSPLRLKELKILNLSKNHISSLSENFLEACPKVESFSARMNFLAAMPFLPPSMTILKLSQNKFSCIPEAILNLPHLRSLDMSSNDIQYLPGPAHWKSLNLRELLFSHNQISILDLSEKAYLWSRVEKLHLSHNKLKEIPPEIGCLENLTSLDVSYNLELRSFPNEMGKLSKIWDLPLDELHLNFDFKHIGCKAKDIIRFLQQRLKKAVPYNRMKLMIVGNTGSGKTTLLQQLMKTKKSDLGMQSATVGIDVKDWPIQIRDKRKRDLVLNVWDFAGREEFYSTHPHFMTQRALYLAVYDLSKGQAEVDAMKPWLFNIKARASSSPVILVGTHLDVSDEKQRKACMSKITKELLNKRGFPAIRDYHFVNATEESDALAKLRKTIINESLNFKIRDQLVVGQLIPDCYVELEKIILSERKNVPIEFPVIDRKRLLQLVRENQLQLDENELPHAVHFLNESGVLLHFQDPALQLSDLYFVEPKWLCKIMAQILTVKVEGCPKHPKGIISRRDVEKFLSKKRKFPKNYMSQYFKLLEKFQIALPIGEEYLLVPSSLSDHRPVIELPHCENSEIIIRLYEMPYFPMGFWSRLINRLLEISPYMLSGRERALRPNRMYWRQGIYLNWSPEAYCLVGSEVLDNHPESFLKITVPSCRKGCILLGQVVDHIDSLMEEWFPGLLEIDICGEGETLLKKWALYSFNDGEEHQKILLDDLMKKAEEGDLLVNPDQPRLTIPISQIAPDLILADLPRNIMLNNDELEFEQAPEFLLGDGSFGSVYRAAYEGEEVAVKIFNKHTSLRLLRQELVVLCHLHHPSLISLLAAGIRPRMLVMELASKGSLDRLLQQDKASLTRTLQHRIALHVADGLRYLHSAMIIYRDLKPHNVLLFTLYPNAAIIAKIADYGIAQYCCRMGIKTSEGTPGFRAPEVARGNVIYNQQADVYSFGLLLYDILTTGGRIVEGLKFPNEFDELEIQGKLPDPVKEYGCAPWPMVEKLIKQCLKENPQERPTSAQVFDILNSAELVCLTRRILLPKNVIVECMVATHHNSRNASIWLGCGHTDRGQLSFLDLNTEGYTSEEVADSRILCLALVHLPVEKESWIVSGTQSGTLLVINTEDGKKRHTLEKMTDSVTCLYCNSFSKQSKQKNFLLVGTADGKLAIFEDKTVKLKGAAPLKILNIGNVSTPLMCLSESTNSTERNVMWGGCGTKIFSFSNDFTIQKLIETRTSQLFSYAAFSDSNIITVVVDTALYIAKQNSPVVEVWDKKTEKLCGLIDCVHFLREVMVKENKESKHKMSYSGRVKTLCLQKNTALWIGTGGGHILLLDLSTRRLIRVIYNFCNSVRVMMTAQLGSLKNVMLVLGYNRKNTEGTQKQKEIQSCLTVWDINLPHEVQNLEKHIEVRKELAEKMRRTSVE
# T2 sequence (Q5S007 whole entry G2019S): as the sequence (Q5S007 whole entry) above, with G2019S counted along it
SMILES,Dmax (wildtype LRRK2),DC50 (wildtype LRRK2),DC50 (G2019S LRRK2),Dmax (G2019S LRRK2)
"C[C@H]1CN(c2cc(-c3n[nH]c4ccc(OC5(C)CC5)cc34)ncn2)CCN1CCOCCOCCOCCOc1ccc(C(=O)NC2CCC(=O)NC2=O)c(F)c1 (stereo partly drawn) [compound 13, N-(2,6-dioxopiperidin-3-yl)-2-fluoro-4-{2-[2-(2-{2-[(2S)-2-methyl-4-{6-[5-(1-methylcyclopropoxy)-1H-indazol-3-yl]pyrimidin-4-yl}piperazin-1-yl]ethoxy}ethoxy)ethoxy]ethoxy}benzamide]",< 50%,10 to 50 nM,10 to 50 nM,< 50%
"CC(C)Oc1cc2c(-c3cc(N4CCN(CCOCCOCCOCCOc5ccc6c(c5)C(=O)N(C5CCC(=O)NC5=O)C6=O)[C@@H](C)C4)ncn3)n[nH]c2cc1F (stereo partly drawn) [compound 15, 2-(2,6-dioxopiperidin-3-yl)-5-{2-[2-(2-{2-[(2S)-4-{6-[6-fluoro-5-(propan-2-yloxy)-1H-indazol-3-yl]pyrimidin-4-yl}-2-methylpiperazin-1-yl]ethoxy}ethoxy)ethoxy]ethoxy}-2,3-dihydro-1H-isoindole-1,3-dione]",< 50%,≥ 100 nM,≥ 100 nM,< 50%
"C[C@H]1CN(c2cc(-c3n[nH]c4ccc(OC(C)(C)C)cc34)ncn2)CCN1CCOCCOCCOCCOc1ccc2c(c1)C(=O)N(C1CCC(=O)NC1=O)C2=O (stereo partly drawn) [compound 16, 5-{2-[2-(2-{2-[(2S)-4-{6-[5-(tert-butoxy)-1H-indazol-3-yl]pyrimidin-4-yl}-2-methylpiperazin-1-yl]ethoxy}ethoxy)ethoxy]ethoxy}-2-(2,6-dioxopiperidin-3-yl)-2,3-dihydro-1H-isoindole-1,3-dione]",< 50%,≥ 100 nM,≥ 100 nM,< 50%
"C[C@H]1CN(c2cc(-c3n[nH]c4ccc(OC5(C)CC5)cc34)ncn2)CCN1CCOCCN1CCN(c2ccc3c(c2)C(=O)N(C2CCC(=O)NC2=O)C3=O)CC1 (stereo partly drawn) [compound 20, 2-(2,6-dioxopiperidin-3-yl)-5-[4-(2-{2-[(2S)-2-mcthyl-4-{6-[5-(1-methylcyclopropoxy)-1H-indazol-3-yl]pyrimidin-4-yl}piperazin-1-yl]ethoxy}ethyl)piperazin-1-yl]-2,3-dihydro-1H-isoindole-1,3-dione]",50 to 70%,< 10 nM,< 10 nM,50 to 70%
"C[C@@H]1CN(c2cc(-c3n[nH]c4ccc(OC5(C)CC5)cc34)ncn2)C[C@H](C)N1CCOCCN1CCN(c2ccc3c(c2)C(=O)N(C2CCC(=O)NC2=O)C3=O)CC1 (stereo partly drawn) [compound 21, 5-[4-(2-{2-[(2R,6S)-2,6-dimethyl-4-{6-[5-(1-methylcyclopropoxy)-1H-indazol-3-yl]pyrimidin-4-yl}piperazin-1-yl]ethoxy}ethyl)piperazin-1-yl]-2-(2,6-dioxopiperidin-3-yl)-2,3-dihydro-1H-isoindole-1,3-dione]",≥ 70%,< 10 nM,< 10 nM,50 to 70%
"CC(C)Oc1ccc2[nH]nc(-c3cc(N4CCN(CC5CCN(CC6CCN(c7ccc8c(c7)C(=O)N(C7CCC(=O)NC7=O)C8=O)CC6)CC5)[C@@H](C)C4)ncn3)c2c1 (stereo partly drawn) [compound 25, 2-(2,6-dioxopiperidin-3-yl)-5-{4-[(4-{[(2S)-2-methyl-4-{6-[5-(propan-2-yloxy)-1H-indazol-3-yl]pyrimidin-4-yl}piperazin-1-yl]methyl}piperidin-1-yl)methyl]piperidin-1-yl}-2,3-dihydro-1H-isoindole-1,3-dione]",≥ 70%,< 10 nM,< 10 nM,≥ 70%

# Results, then the compound that gave them:
Dmax (wildtype LRRK2),DC50 (wildtype LRRK2),DC50 (G2019S LRRK2),Dmax (G2019S LRRK2),SMILES
≥ 70%,≥ 100 nM,≥ 100 nM,50 to 70%,"CC(C)Oc1cc2c(-c3ccnc(N4CCN(CCOCCOCCOCCOc5ccc6c(c5)C(=O)N(C5CCC(=O)NC5=O)C6=O)[C@@H](C)C4)c3)n[nH]c2cc1F (stereo partly drawn) [compound 14, 2-(2,6-dioxopiperidin-3-yl)-5-{2-[2-(2-{2-[(2S)-4-{4-[6-fluoro-5-(propan-2-yloxy)-1H-indazol-3-yl]pyridin-2-yl}-2-methylpiperazin-1-yl]ethoxy}ethoxy)ethoxy]ethoxy}-2,3-dihydro-1H-isoindole-1,3-dione]"
≥ 70%,< 10 nM,< 10 nM,≥ 70%,"CC1(Oc2ccc3[nH]nc(-c4cc(N5CCO[C@@H](CCOCCOCCOCCOc6ccc7c(c6)C(=O)N(C6CCC(=O)NC6=O)C7=O)C5)ncn4)c3c2)CC1 (stereo partly drawn) [compound 18, 2-(2,6-dioxopiperidin-3-yl)-5-{2-[2-(2-{2-[(2S)-4-{6-[5-(1-methylcyclopropoxy)-1H-indazol-3-yl]pyrimidin-4-yl}morpholin-2-yl]ethoxy}ethoxy)ethoxy]ethoxy}-2,3-dihydro-1H-isoindole-1,3-dione]"
< 50%,≥ 100 nM,10 to 50 nM,< 50%,"C[C@H]1CN(c2cc(-c3n[nH]c4ccc(OC5(C)CC5)cc34)ncn2)CCN1CCOCCOCCOCCOc1ccc2c(c1)C(=O)N(C1(C)CCC(=O)NC1=O)C2=O (stereo partly drawn) [compound 19, 2-(3-methyl-2,6-dioxopiperidin-3-yl)-5-{2-[2-(2-{2-[(2S)-2-methyl-4-{6-[5-(1-methylcyclopropoxy)-1H-indazol-3-yl]pyrimidin-4-yl}piperazin-1-yl]ethoxy}ethoxy)ethoxy]ethoxy}-2,3-dihydro-1H-isoindole-1,3-dione]"
< 50%,10 to 50 nM,10 to 50 nM,< 50%,"CC(C)Oc1ccc2[nH]nc(-c3cc(N4CCN(CCOCCN5CCN(c6ccc7c(c6)C(=O)N(C6CCC(=O)NC6=O)C7=O)CC5)[C@@H](C)C4)ncn3)c2c1 (stereo partly drawn) [compound 22, 2-(2,6-dioxo-3-piperidyl)-5-[4-[2-[2-[(2S)-4-[6-(5-isopropoxy-1H-indazol-3-yl)pyrimidin-4-yl]-2-methyl-piperazin-1-yl]ethoxy]ethyl]piperazin-1-yl]isoindoline-1,3-dione]"
50 to 70%,< 10 nM,< 10 nM,50 to 70%,"CC(C)Oc1ccc2[nH]nc(-c3cc(N4CCN(CCCCN5CCN(c6ccc7c(c6)C(=O)N(C6CCC(=O)NC6=O)C7=O)CC5)[C@@H](C)C4)ncn3)c2c1 (stereo partly drawn) [compound 23, 2-(2,6-dioxopiperidin-3-yl)-5-(4-{4-[(2S)-2-methyl-4-{6-[5-(propan-2-yloxy)-1H-indazol-3-yl]pyrimidin-4-yl}piperazin-1-yl]butyl}piperazin-1-yl)-2,3-dihydro-1H-isoindole-1,3-dione]"
≥ 70%,10 to 50 nM,10 to 50 nM,≥ 70%,"CC(C)Oc1ccc2[nH]nc(-c3cc(N4CCN(CCN5CCN(CC6CCN(c7ccc8c(c7)C(=O)N(C7CCC(=O)NC7=O)C8=O)CC6)CC5)[C@@H](C)C4)ncn3)c2c1 (stereo partly drawn) [compound 26, 2-(2,6-dioxopiperidin-3-yl)-5-{4-[(4-{2-[(2S)-2-methyl-4-{6-[5-(propan-2-yloxy)-1H-indazol-3-yl]pyrimidin-4-yl}piperazin-1-yl]ethyl}piperazin-1-yl)methyl]piperidin-1-yl}-2,3-dihydro-1H-isoindole-1,3-dione]"
≥ 70%,< 10 nM,< 10 nM,≥ 70%,"CC(C)Oc1ccc2[nH]nc(-c3cc(N4CCN(CCN5CCC(CN6CCN(c7ccc8c(c7)C(=O)N(C7CCC(=O)NC7=O)C8=O)CC6)CC5)CC4)ncn3)c2c1 (stereo not shown) [compound 27, 2-(2,6-dioxopiperidin-3-yl)-5-[4-({1-[2-(4-{6-[5-(propan-2-yloxy)-1H-indazol-3-yl]pyrimidin-4-yl}piperazin-1-yl)ethyl]piperidin-4-yl}methyl)piperazin-1-yl]-2,3-dihydro-1H-isoindole-1,3-dione]"
